Results: PubChem BioAssay (NCI)
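A five-concentration, 48-hour dose response in 96-well plates underlies each endpoint, interpolated linearly between surrounding concentrations. GI50 marks 50% less growth. TGI denotes the concentration required for complete inhibition of growth.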

Tests used:
Experiment in all cases: NCI anticancer screen, dose series, 48 h
HL-60(TB) leukemia = system: HL-60(TB) leukemia
IGROV1 ovarian = system: IGROV1 ovarian
OVCAR-3 ovarian = system: OVCAR-3 ovarian
RXF 393 renal = system: RXF 393 renal
SF-539 CNS = system: SF-539 CNS
SK-MEL-5 melanoma = system: SK-MEL-5 melanoma
SK-OV-3 ovarian = system: SK-OV-3 ovarian
SR leukemia = system: SR leukemia
UACC-62 melanoma = system: UACC-62 melanoma
UO-31 renal = system: UO-31 renal

SMILES	TGI (HL-60(TB) leukemia) [µM]	TGI (IGROV1 ovarian) [µM]	TGI (OVCAR-3 ovarian) [µM]	TGI (RXF 393 renal) [µM]	TGI (SF-539 CNS) [µM]	TGI (SK-MEL-5 melanoma) [µM]	TGI (SK-OV-3 ovarian) [µM]	TGI (SR leukemia) [µM]	TGI (UACC-62 melanoma) [µM]	TGI (UO-31 renal) [µM]	GI50 (HL-60(TB) leukemia) [µM]	GI50 (IGROV1 ovarian) [µM]	GI50 (OVCAR-3 ovarian) [µM]	GI50 (RXF 393 renal) [µM]	GI50 (SF-539 CNS) [µM]	GI50 (SK-MEL-5 melanoma) [µM]	GI50 (SK-OV-3 ovarian) [µM]	GI50 (SR leukemia) [µM]	GI50 (UACC-62 melanoma) [µM]	GI50 (UO-31 renal) [µM]
O=C(O)[C@@H]1C[C@@H](O)CN1	> 100	> 100	> 100	> 100	> 100	> 100	> 100	> 100	> 100	> 100	–	–	–	–	–	–	–	–	–	–
O=C1CCC(=O)c2cc(Br)ccc2N1	> 100	> 100	> 100	> 100	> 100	> 100	> 100	63.1	> 100	> 100	–	–	–	–	–	–	–	–	–	–
COc1cc(/C=C2\C(=O)N(c3c(Cl)cccc3Cl)c3ccccc32)cc(OC)c1O	8.74	15	7.24	11.6	17.3	6.26	18.9	–	13.2	12.3	1.01	1.01	0.905	1.86	0.531	0.375	2.06	0.0847	0.594	0.769
CCC(=S)N(C)O	13.6	> 37	> 100	> 100	84.1	51	> 100	24.1	78.3	68.9	–	–	–	–	–	–	–	–	–	–
